The subject of one experiment is Hela cells. Kind of experiment: EGFP pDNA transfection, flow cytometry, HeLa. Format: cell-based. The note with it: HeLa seeded at 60,000, 120,000 and 240,000 cells/mL. As to the method:
For cytometry-based assays, the delivery of pDNA encoding for the expression of eGFP gene (GFP) in HeLa and A549 cells was performed. Amphiphilic molecule stock solutions in DMSO were diluted with DMEM and freshly mixed with pDNA stock solutions in DMEM prior to transfection experiments, to afford several complexes at different amphiphile concentration (2.5-10 μM) while maintaining a constant final pDNA concentration of 2 ng/μL. The mixture was shaken for 30 min at room temperature before the addition to the cells. The cell medium was aspirated, and cells were washed twice with PBS. Finally, 50 μL of the complex's solution were added to the cells and incubated for 4 h. After the incubation, the medium was replaced by 100 μL of fresh DMEM supplemented with 10% FBS. 72 hours after transfection the DMEM was removed, and cells were cultured for 5 min with 100 μL of trypsin. Then, 100 μL of PBS (supplemented with 2% FBS and 1% EDTA 0.5M) were added. Finally, the GFP fluorescent measurement was performed in a flow cytometer and the percentage of GFP positive (i.e., transfected cells) were quantified. Amphiphile transfection efficiency was compared to control, non-treated cells and all experiments were done in triplicate.
7.3(Leu-His) peptide with D-amino acids was synthesized. This peptide would be more resistant to the degradation by proteases. The inventors studied the delivery of EGFP pDNA using amphiphiles comprising either enantiomer (either 7.3(Leu-His) peptide with D-amino acids or with L-amino acids) and myristoleyl aldehyde to compare their transfecting activity in HeLa cells. Number of EGFP expressing cells was measured by flow cytometry.
Experiments in cultured cells at different confluence levels were performed to check the effect of this parameter on the activity of amphiphile 7.3(Leu-His) M. As described above, transfection experiments are usually performed on cells seeded the day before at a cell concentration of 60,000 cell/mL (100 μL/well). In the current example, transfection experiments with EGFP pDNA are performed in HeLa cells two and four times more concentrated (120,000 and 240,000 cells/mL, respectively). […] However, for this experiment more volume of complex amphiphile/pDNA was needed as the cell concentration was increased (50, 100 and 200 μL of complexes were used for 60,000, 120,000 and 240,000 cells/mL, respectively).
Several structural modifications were performed on the peptide 7.3(Leu-His). The delivery of EGFP pDNA in HeLa cells using amphiphiles comprising these peptides and myristoleyl aldehyde was tested. The modifications consisted of the modification in the order of the amino acids, the replacement of 1 to 3 K* residues for O* residues and the addition of 1 or 2 R residues on the N-terminus. […]
For orientation: In flow cytometry, cells or beads pass a laser one at a time.

The subject of experiment [1] is chicken embryo fibroblasts (CEF). Kind of experiment: EGFP pDNA transfection in primary chicken embryo fibroblasts. Format: cell-based. The text has this: FIG. 5 EGFP pDNA transfection efficacy (% GFP-positive cells) with amphiphile comprising 7.3(Leu-His) peptide and myristoleyl aldehyde (7.3(L-H) M) at different concentrations, compared with Lipofectamine 2000 (LF) and TransIT-LT1 Transfection Reagent (Mirus) in CEF (chicken embryo fibroblasts).
The amphiphile obtained by combining the peptide 7.3(Leu-His) with myristoleyl aldehyde (7.3(Leu-His) M) was used to deliver EGFP pDNA in primary chicken embryo fibroblasts (CEF, obtained from 9-10 day-old chicken embryos), which are non-immortal cells difficult to transfect. The transfection efficiency of amphiphile 7.3(Leu-His) M was compared to that of Lipofectamine® 2000 (LF) and TransIT-LT1 Transfection Reagent (Mirus).

Another experiment has as its system Ai14 mice. Kind of experiment: In vivo gene editing by Cre mRNA delivery, tdTomato fluorescence. Conditions: i.v.; 7 μg Cre mRNA; 1:1 and 5:1 mass ratio amphiphile:mRNA; 2 days. As for the experimental part: In vivo gene editing enables localization and quantification of expression following Cre recombinase mRNA delivery in Ai14 mice, a reporter strain that expresses tdTomato fluorescence after Cre-mediated recombination.
The inventors evaluated the mRNA delivery efficiency of amphiphile by i.v. injections of an amphiphile-complexed Cre recombinase mRNA (CleanCap® Cre mRNA (5moU), TriLink, L-7211) in Ai14 mice. Amphiphilic molecule stock solutions were prepared in DMSO as described above. The solutions of mRNA/amphiphile complexes were freshly prepared prior to in vivo experiments. Amphiphile solutions in DMSO were mixed with mRNA solutions in a suitable buffer, such as PBS, or phosphate buffer enriched with inorganic salts (1:1 and 5:1 mass ratio, final amount of mRNA per mice=7 μg/mouse). The mixture was shaken for 30 min at room temperature before injection. For each mouse, 7 μg mRNA was complexed with 7.3(Leu-His) with myristoleyl aldehyde (7.3(Leu-His) M), and administered by i.v. injection in the tail vein in 100 μL of a suitable buffer, such as PBS, or phosphate buffer enriched with inorganic salts. As control, 7 μg of naked mRNA was injected in three mice. After 2 days, mice were sacrificed and were imaged to confirm tdTomato expression.

In experiment [2] the test system is all the cell lines except for HepG2.

Starred links: 1 amine or outer side, 2 acyl side, 3 side chain; linkers in the order of their positions; H or OH if unused. Residues, ends and D or L forms follow the SMILES beside them. Groups on a side chain read outwards from the residue. *: point of attachment. Glutaryl = O=C(CCCC(=O)[*:2])[*:1]; X1 = CCCC/C=C\CCCCCCCC=NN*

Consider `CCCC/C=C\CCCCCCCC=NNC(=O)CCCC(=O)NCCCC[C@H](NC(=O)[C@H](CCCCNC(=O)CCCC(=O)NN=CCCCCCCC/C=C\CCCC)NC(=O)[C@H](CCCNC(=N)N)NC(=O)[C@H](Cc1c[nH]cn1)NC(=O)[C@H](CCCCNC(=O)CCCC(=O)NN=CCCCCCCC/C=C\CCCC)NC(=O)[C@H](CCCNC(=N)N)NC(C)=O)C(=O)N[C@@H](Cc1c[nH]cn1)C(N)=O` [7.3(Leu-His) M] (Ac-RK([Glutaryl-X1])HRK([Glutaryl-X1])K([Glutaryl-X1])H-NH2), for which the “EGFP pDNA transfection at different cell confluence” value with Hela cells is on record as “performs equally well at all cell concentrations tested”. In addition, in experiment [1], the “transfection efficiency relative to Lipofectamine 2000 (LF)” value is “two times better” and the “transfection efficiency relative to TransIT-LT1 Transfection Reagent (Mirus)” value is listed as “up to five times better”. Further, in the experiment with Ai14 mice, the “tdTomato expression in organs” value was “expression of tdTomato protein was observed preferably in spleen and lungs, being more intense when using 5:1 mass ratio amphiphile:mRNA”. In experiment [2], this compound came in with an IC50 of 13 to 24 µM.

By IC50 is commonly meant the concentration that inhibits the measured activity by half.
